Experimental data published in ChEMBL document CHEMBL3860097, “Synthesis and biological evaluation of C-ring truncated deguelin derivatives as heat shock protein 90 (HSP90) inhibitors” (2016).
Active and inactive are the calls of the source. The calls are words filed in the database; no cut-off is given here.

Tests used:
[1] = biological target: T1, Heat shock protein HSP90 (Homo sapiens) (UniProt P07900+P08238); test: Inhibition of HSP90 in human H1299 cells assessed as suppression of HIF-1alpha at 100 nM preincubated for 72 hrs followed by incubation under hypoxic condition for 12 hrs by Western blot method relative to control; format: cell-based
[2] = biological target: T1, Heat shock protein HSP90 (Homo sapiens); test: Inhibition of HSP90 in human H1299 cells assessed as suppression of HIF-1alpha at 10 nM preincubated for 72 hrs followed by incubation under hypoxic condition for 12 hrs by Western blot method relative to control; format: cell-based
NCI-H1299 = test: Cytotoxicity against human H1299 cells assessed as decrease in cell viability by MTT assay; format: functional, cell-based
[3] = Cytotoxicity against human H1299 cells assessed as decrease in cell viability at 10 uM by MTT assay relative to control; format: functional, NCI-H1299
Homo sapiens [4] = species: Homo sapiens; test: Antiangiogenic activity in HRMEC assessed as inhibition of VEGF-induced cell proliferation under hypoxic condition by measuring [3H]-thymidine incorporation at 100 nM preincubated for 24 hrs followed by [3H]-thymidine addition measured after 6 hrs by liquid scintillation counter; format: functional
Homo sapiens [5] = species: Homo sapiens; test: Antiangiogenic activity in HRMEC assessed as inhibition of VEGF-induced cell migration under hypoxic condition at 100 nM after 4 hrs by hematoxylin and eosin staining-based phase-contrast microscopy; format: functional
[6] = biological target: T1, Heat shock protein HSP90 (Homo sapiens); test: Inhibition of HSP90 in human H1299 cells assessed as suppression of HIF-1alpha preincubated for 72 hrs followed by incubation under hypoxic condition for 12 hrs by Western blot method; format: cell-based

## COc1cc2cc(C(OC(C)=O)c3ccc4c(c3OC)C=CC(C)(C)O4)oc2cc1OC (centres undefined)
[1]
  inhibition: 72.2%

## COc1cc2nccc(C(OC(N)=O)c3ccc4c(c3OC)C=CC(C)(C)O4)c2cc1OC (centres undefined)
[1]
  inhibition: 81.2%

## COc1cc2ccc(C(O)c3ccc4c(c3OC)C=CC(C)(C)O4)nc2cc1OC (centres undefined)
[1]
  inhibition: 86%

## CCC(=O)OC(c1ccc2c(c1OC)C=CC(C)(C)O2)c1ccnc2cc(OC)c(OC)cc12 (centres undefined)
[1]
  inhibition: 96.4%

## COc1cc2nccc(C(O)c3ccc4c(c3OC)C=CC(C)(C)O4)c2cc1OC (centres undefined)
[1]
  inhibition: 71.5%

## COc1cc2occ(C(=O)c3ccc4c(c3OC)C=CC(C)(C)O4)c2cc1OC
[1]
  inhibition: 92.4%
[2]
  inhibition: 105%

## COc1cc2occ(C(OC(C)=O)c3ccc4c(c3OC)C=CC(C)(C)O4)c2cc1OC (centres undefined)
[1]
  inhibition: 81%

## COc1cc2nccc(C(NC(=O)C3CC3)c3ccc4c(c3OC)C=CC(C)(C)O4)c2cc1OC (centres undefined)
[1]
  inhibition: 85.5%

## COc1cc2cc(/C(=N\O)c3ccc4c(c3OC)C=CC(C)(C)O4)oc2cc1OC
[1]
  inhibition: 117%

## COc1cc2nccc(C(OC(C)=O)c3ccc4c(ccn4C)c3)c2cc1OC (centres undefined)
[1]
  inhibition: 97.2%

## COc1cc2cc(C(OC(=O)C3CC3)c3ccc4ncccc4c3)oc2cc1OC (centres undefined)
[1]
  inhibition: 115%

## COc1cc2ccc(C(OC(C)=O)c3ccc4c(c3OC)C=CC(C)(C)O4)nc2cc1OC (centres undefined)
[1]
  inhibition: 73%

## COc1cc2nccc(C(OC(=O)C3CC3)c3ccc4c(c3OC)C=CC(C)(C)O4)c2cc1OC (centres undefined)
[1]
  inhibition: 53.9%
[2]
  inhibition: 63.3%
NCI-H1299
  Activity: Dose-dependent effect
[3]
  Activity: <50%
Homo sapiens [4]
  inhibition: Active
Homo sapiens [5]
  inhibition: Active
[6]
  inhibition: Dose-dependent effect

## CO/N=C(/c1cc2cc(OC)c(OC)cc2o1)c1ccc2c(c1OC)C=CC(C)(C)O2
[1]
  inhibition: 66.5%
[2]
  inhibition: 76.9%

## COc1cc2nccc(C(NC(C)=O)c3ccc4c(c3OC)C=CC(C)(C)O4)c2cc1OC (centres undefined)
[1]
  inhibition: 72.9%

## COc1cc2ccc(C(OC(=O)C3CC3)c3ccc4c(c3OC)C=CC(C)(C)O4)nc2cc1OC (centres undefined)
[1]
  inhibition: 71%

## COc1cc2nccc(C(=O)c3ccc4c(ccn4C)c3)c2cc1OC
[1]
  inhibition: 86%

## COc1cc2nccc(/C(=N\O)c3ccc4c(c3OC)C=CC(C)(C)O4)c2cc1OC
[1]
  inhibition: 64%

## COc1cc2ncnc(C(OC(C)=O)c3ccc4c(c3OC)C=CC(C)(C)O4)c2cc1OC (centres undefined)
[1]
  inhibition: 88.6%

## COc1cc2ccc(C(=O)c3ccc4c(c3OC)C=CC(C)(C)O4)nc2cc1OC
[1]
  inhibition: 76%

## COc1cc2cc(C(=O)c3ccc4ncccc4c3)oc2cc1OC
[1]
  inhibition: 40.6%

## COc1cc2nccc(C(OC(C)=O)c3ccc4c(c3OC)C=CC(C)(C)O4)c2cc1OC (centres undefined)
[1]
  inhibition: 62.2%
[2]
  inhibition: 95.4%

## COc1cc2nccc(C(SC(C)=O)c3ccc4c(c3OC)C=CC(C)(C)O4)c2cc1OC (centres undefined)
[1]
  inhibition: 59.3%
[2]
  inhibition: 74%
NCI-H1299
  Activity: Dose-dependent effect
[3]
  Activity: <50%

## CCCC(=O)OC(c1ccc2c(c1OC)C=CC(C)(C)O2)c1ccnc2cc(OC)c(OC)cc12 (centres undefined)
[1]
  inhibition: 90%

## CO/N=C(\c1cc2cc(OC)c(OC)cc2o1)c1ccc2c(c1OC)C=CC(C)(C)O2
[1]
  inhibition: 65.6%

## COc1cc2cc(C(=O)c3ccc4c(c3OC)C=CC(C)(C)O4)oc2cc1OC
[1]
  inhibition: 54.1%

## COc1cc2nccc(C(O)c3ccc4c(ccn4C)c3)c2cc1OC (centres undefined)
[1]
  inhibition: 102%

## COc1cc2nccc(C(OC(=O)C3CC3)c3ccc4ncccc4c3)c2cc1OC (centres undefined)
[1]
  inhibition: 115%

## COc1cc2nccc(C(=O)c3ccc4c(c3OC)C=CC(C)(C)O4)c2cc1OC
[1]
  inhibition: 70.5%

## CO/N=C(/c1ccc2c(c1OC)C=CC(C)(C)O2)c1ccnc2cc(OC)c(OC)cc12
[1]
  inhibition: 54.2%

## COc1cc2nccc(C(OC(=O)C3CC3)c3ccc4ncccc4c3OC)c2cc1OC (centres undefined)
[1]
  inhibition: 80.5%

## COc1cc2nccc(C(OC(C)=O)c3ccc4ncccc4c3)c2cc1OC (centres undefined)
[1]
  inhibition: 82.7%

## COc1cc2cc(C(OC(C)=O)c3ccc4ncccc4c3)oc2cc1OC (centres undefined)
[1]
  inhibition: 56%
[2]
  inhibition: 88%

## COc1cc2cc(/C(=N/O)c3ccc4c(c3OC)C=CC(C)(C)O4)oc2cc1OC
[1]
  inhibition: 70.6%

## CC(C)c1cc(-c2n[nH]c(=O)n2-c2ccc3c(ccn3C)c2)c(O)cc1O
Homo sapiens [4]
  inhibition: Active
Homo sapiens [5]
  inhibition: Active

## COc1cc2nccc(C(OC(=O)C3CC3)c3ccc4c(ccn4C)c3)c2cc1OC (centres undefined)
[1]
  inhibition: 85%

## COc1ccc(CC(=O)c2ccc3c(c2OC)C=CC(C)(C)O3)cc1OC
[1]
  inhibition: 85.3%

## COc1cc2ncnc(C(OC(=O)C3CC3)c3ccc4c(c3OC)C=CC(C)(C)O4)c2cc1OC (centres undefined)
[1]
  inhibition: 71.9%

## COc1cc2nccc(C(OC(C)=O)c3ccc4ncccc4c3OC)c2cc1OC (centres undefined)
[1]
  inhibition: 67.4%

## COc1cc2c(cc1OC)[C@@H]1C(=O)c3ccc4c(c3O[C@@H]1CO2)C=CC(C)(C)O4
[1]
  inhibition: 64%
[2]
  inhibition: 94%
Homo sapiens [4]
  inhibition: Active
Homo sapiens [5]
  inhibition: Active

## COc1cc2cc(C(O)c3ccc4ncccc4c3)oc2cc1OC (centres undefined)
[1]
  inhibition: 102%

## COc1cc2nccc(C(N)c3ccc4c(c3OC)C=CC(C)(C)O4)c2cc1OC (centres undefined)
[1]
  inhibition: 68.9%
